{"source": "patent US20230250066A1", "about": "“HERBICIDAL CINNOLINE DERIVATIVES” (SYNGENTA CROP PROTECTION AG, priority 2020, published 2023)", "assay_type_in_all_cases": "in vivo", "key": {"[1]": {"tested_on": "Abutilon theophrasti (ABUTH)", "assay": "Pre-emergence herbicidal test", "conditions": "1000 g/ha, evaluated after 13 days"}, "[2]": {"tested_on": "Amaranthus retoflexus (AMARE)", "assay": "Pre-emergence herbicidal test", "conditions": "1000 g/ha, evaluated after 13 days"}, "Zea mays (ZEAMX) [3]": {"tested_on": "Zea mays (ZEAMX)", "assay": "Pre-emergence herbicidal test", "conditions": "1000 g/ha, evaluated after 13 days"}, "Setaria faberi (SETFA) [4]": {"tested_on": "Setaria faberi (SETFA)", "assay": "Pre-emergence herbicidal test", "conditions": "1000 g/ha, evaluated after 13 days"}, "[5]": {"tested_on": "Ipomoea hederacea (IPOHE)", "assay": "Pre-emergence herbicidal test", "conditions": "1000 g/ha, evaluated after 13 days"}, "[6]": {"tested_on": "Echinochloa crus-galli (ECHCG)", "assay": "Pre-emergence herbicidal test", "conditions": "1000 g/ha, evaluated after 13 days"}, "[7]": {"tested_on": "Abutilon theophrasti (ABUTH)", "assay": "Post-emergence herbicidal test", "conditions": "1000 g/ha unless otherwise stated, evaluated after 13 days", "procedure": "(§1) Seeds of a variety of test species are sown in standard soil in pots (Amaranthus retoflexus (AMARE), Solanum nigrum (SOLNI), Setaria faberi (SETFA), Lolium perenne (LOLPE), Echinochloa crus-galli (ECHCG), Ipomoea hederacea (IPOHE), Abutilon theophrasti (ABUTH), Zea mays (ZEAMX)). After 8 days cultivation under controlled conditions in a glasshouse (at 24° C./16° C., day/night; 14 hours light; 65% humidity), the plants are sprayed with an aqueous spray solution derived from the formulation of the technical active ingredient in acetone/water (50:50) solution containing 0.5% Tween 20 (polyoxyethelyene sorbitan monolaurate, CAS RN 9005-64-5). Compounds are applied at 1000 g/ha unless otherwise stated. The test plants are then grown in a glasshouse under controlled conditions in a glasshouse (at 24° C./16° C., day/night; 14 hours light; 65% humidity) and watered twice daily. After 13 days the test is evaluated for the percentage damage caused to the plant. The biological activities are shown in the following table on a five-point scale (5=81-100%; 4=61-80%; 3=41-60%; 2=21-40%; 1=10-20%; 0=0%;−=not tested)."}, "[8]": {"tested_on": "Echinochloa crus-galli (ECHCG)", "assay": "Post-emergence herbicidal test", "conditions": "1000 g/ha unless otherwise stated, evaluated after 13 days", "procedure": "as §1"}, "[9]": {"tested_on": "Ipomoea hederacea (IPOHE)", "assay": "Post-emergence herbicidal test", "conditions": "1000 g/ha unless otherwise stated, evaluated after 13 days", "procedure": "as §1"}, "Setaria faberi (SETFA) [10]": {"tested_on": "Setaria faberi (SETFA)", "assay": "Post-emergence herbicidal test", "conditions": "1000 g/ha unless otherwise stated, evaluated after 13 days", "procedure": "as §1"}, "[11]": {"tested_on": "Amaranthus retoflexus (AMARE)", "assay": "Post-emergence herbicidal test", "conditions": "1000 g/ha unless otherwise stated, evaluated after 13 days", "procedure": "as §1"}, "Zea mays (ZEAMX) [12]": {"tested_on": "Zea mays (ZEAMX)", "assay": "Post-emergence herbicidal test", "conditions": "1000 g/ha unless otherwise stated, evaluated after 13 days", "procedure": "as §1"}}}
{"smiles": "CC[S+]([O-])c1cccc2c1c(=O)c(C(=O)O)nn2-c1ccc(OC(F)(F)F)cc1", "note": "(stereo not drawn) [Compound P25, 5-ethylsulfinyl-4-oxo-1-[4-(trifluoromethoxy)phenyl]cinnoline-3-carboxylic acid]", "values": [{"measurement": "percentage damage caused to the plant, five-point scale, ABUTH", "setting": "[1]", "result": "0 (0=0%)"}, {"measurement": "percentage damage caused to the plant, five-point scale, AMARE", "setting": "[2]", "result": "0 (0=0%)"}, {"measurement": "percentage damage caused to the plant, five-point scale, ZEAMX", "setting": "Zea mays (ZEAMX) [3]", "result": "0 (0=0%)"}, {"measurement": "percentage damage caused to the plant, five-point scale, SETFA", "setting": "Setaria faberi (SETFA) [4]", "result": "1 (1=10-20%)"}, {"measurement": "percentage damage caused to the plant, five-point scale, IPOHE", "setting": "[5]", "result": "0 (0=0%)"}, {"measurement": "percentage damage caused to the plant, five-point scale, ECHCG", "setting": "[6]", "result": "0 (0=0%)"}, {"measurement": "percentage damage caused to the plant, ABUTH (five-point scale)", "setting": "[7]", "result": "1 (1=10-20%)"}, {"measurement": "percentage damage caused to the plant, ECHCG (five-point scale)", "setting": "[8]", "result": "1 (1=10-20%)"}, {"measurement": "percentage damage caused to the plant, IPOHE (five-point scale)", "setting": "[9]", "result": "1 (1=10-20%)"}, {"measurement": "percentage damage caused to the plant, SETFA (five-point scale)", "setting": "Setaria faberi (SETFA) [10]", "result": "2 (2=21-40%)"}, {"measurement": "percentage damage caused to the plant, AMARE (five-point scale)", "setting": "[11]", "result": "0 (0=0%)"}, {"measurement": "percentage damage caused to the plant, ZEAMX (five-point scale)", "setting": "Zea mays (ZEAMX) [12]", "result": "1 (1=10-20%)"}]}
{"smiles": "CCSc1cccc2c1c(=O)c(C(=O)O)nn2-c1ccc(OC(F)(F)F)cc1", "note": "[Compound P26, 5-ethylsulfanyl-4-oxo-1-[4-(trifluoromethoxy)phenyl]cinnoline-3-carboxylic acid]", "values": [{"measurement": "percentage damage caused to the plant, five-point scale, ABUTH", "setting": "[1]", "result": "0 (0=0%)"}, {"measurement": "percentage damage caused to the plant, five-point scale, AMARE", "setting": "[2]", "result": "1 (1=10-20%)"}, {"measurement": "percentage damage caused to the plant, five-point scale, ZEAMX", "setting": "Zea mays (ZEAMX) [3]", "result": "0 (0=0%)"}, {"measurement": "percentage damage caused to the plant, five-point scale, SETFA", "setting": "Setaria faberi (SETFA) [4]", "result": "0 (0=0%)"}, {"measurement": "percentage damage caused to the plant, five-point scale, IPOHE", "setting": "[5]", "result": "0 (0=0%)"}, {"measurement": "percentage damage caused to the plant, five-point scale, ECHCG", "setting": "[6]", "result": "0 (0=0%)"}, {"measurement": "percentage damage caused to the plant, ABUTH (five-point scale)", "setting": "[7]", "result": "1 (1=10-20%)"}, {"measurement": "percentage damage caused to the plant, ECHCG (five-point scale)", "setting": "[8]", "result": "1 (1=10-20%)"}, {"measurement": "percentage damage caused to the plant, IPOHE (five-point scale)", "setting": "[9]", "result": "0 (0=0%)"}, {"measurement": "percentage damage caused to the plant, SETFA (five-point scale)", "setting": "Setaria faberi (SETFA) [10]", "result": "1 (1=10-20%)"}, {"measurement": "percentage damage caused to the plant, AMARE (five-point scale)", "setting": "[11]", "result": "0 (0=0%)"}, {"measurement": "percentage damage caused to the plant, ZEAMX (five-point scale)", "setting": "Zea mays (ZEAMX) [12]", "result": "1 (1=10-20%)"}]}
{"smiles": "CCS(=O)(=O)c1cccc2c1c(=O)c(C(=O)O)nn2-c1ccc(OC(F)(F)F)cc1", "note": "[Compound P27, 5-ethylsulfonyl-4-oxo-1-[4-(trifluoromethoxy)phenyl]cinnoline-3-carboxylic acid]", "values": [{"measurement": "percentage damage caused to the plant, five-point scale, ABUTH", "setting": "[1]", "result": "0 (0=0%)"}, {"measurement": "percentage damage caused to the plant, five-point scale, AMARE", "setting": "[2]", "result": "0 (0=0%)"}, {"measurement": "percentage damage caused to the plant, five-point scale, ZEAMX", "setting": "Zea mays (ZEAMX) [3]", "result": "1 (1=10-20%)"}, {"measurement": "percentage damage caused to the plant, five-point scale, SETFA", "setting": "Setaria faberi (SETFA) [4]", "result": "3 (3=41-60%)"}, {"measurement": "percentage damage caused to the plant, five-point scale, IPOHE", "setting": "[5]", "result": "0 (0=0%)"}, {"measurement": "percentage damage caused to the plant, five-point scale, ECHCG", "setting": "[6]", "result": "0 (0=0%)"}, {"measurement": "percentage damage caused to the plant, ABUTH (five-point scale)", "setting": "[7]", "result": "1 (1=10-20%)"}, {"measurement": "percentage damage caused to the plant, ECHCG (five-point scale)", "setting": "[8]", "result": "2 (2=21-40%)"}, {"measurement": "percentage damage caused to the plant, IPOHE (five-point scale)", "setting": "[9]", "result": "0 (0=0%)"}, {"measurement": "percentage damage caused to the plant, SETFA (five-point scale)", "setting": "Setaria faberi (SETFA) [10]", "result": "2 (2=21-40%)"}, {"measurement": "percentage damage caused to the plant, AMARE (five-point scale)", "setting": "[11]", "result": "0 (0=0%)"}, {"measurement": "percentage damage caused to the plant, ZEAMX (five-point scale)", "setting": "Zea mays (ZEAMX) [12]", "result": "1 (1=10-20%)"}]}
{"smiles": "CCOC(=O)c1nn(-c2ccc(OC(F)(F)F)cc2)c2cccc([S+](C)[O-])c2c1=O", "note": "(stereo not drawn) [Compound P28, ethyl 5-methylsulfinyl-4-oxo-1-[4-(trifluoromethoxy)phenyl]cinnoline-3-carboxylate]", "values": [{"measurement": "percentage damage caused to the plant, five-point scale, ABUTH", "setting": "[1]", "result": "0 (0=0%)"}, {"measurement": "percentage damage caused to the plant, five-point scale, AMARE", "setting": "[2]", "result": "0 (0=0%)"}, {"measurement": "percentage damage caused to the plant, five-point scale, ZEAMX", "setting": "Zea mays (ZEAMX) [3]", "result": "0 (0=0%)"}, {"measurement": "percentage damage caused to the plant, five-point scale, SETFA", "setting": "Setaria faberi (SETFA) [4]", "result": "0 (0=0%)"}, {"measurement": "percentage damage caused to the plant, five-point scale, IPOHE", "setting": "[5]", "result": "0 (0=0%)"}, {"measurement": "percentage damage caused to the plant, five-point scale, ECHCG", "setting": "[6]", "result": "0 (0=0%)"}, {"measurement": "percentage damage caused to the plant, ABUTH (five-point scale)", "setting": "[7]", "result": "1 (1=10-20%)"}, {"measurement": "percentage damage caused to the plant, ECHCG (five-point scale)", "setting": "[8]", "result": "0 (0=0%)"}, {"measurement": "percentage damage caused to the plant, IPOHE (five-point scale)", "setting": "[9]", "result": "0 (0=0%)"}, {"measurement": "percentage damage caused to the plant, SETFA (five-point scale)", "setting": "Setaria faberi (SETFA) [10]", "result": "1 (1=10-20%)"}, {"measurement": "percentage damage caused to the plant, AMARE (five-point scale)", "setting": "[11]", "result": "1 (1=10-20%)"}, {"measurement": "percentage damage caused to the plant, ZEAMX (five-point scale)", "setting": "Zea mays (ZEAMX) [12]", "result": "0 (0=0%)"}]}
